Assay results reported in patent EP0791603A2, “Pure somatostatin antagonist and methods of use thereof” (American Cyanamid Company, priority 1996, dated 1997).
Positions of bridges follow the written chain, without caps; N, C: chain ends. Non-standard residues stand in square brackets, D forms with d. Residues, ends and D or L forms follow the SMILES beside them. NMePhe(4-NO2) = CN[C@@H](Cc1ccc([N+](=O)[O-])cc1)C(=O)O; Phe(4-NO2) = N[C@@H](Cc1ccc([N+](=O)[O-])cc1)C(=O)O; 2Nal = N[C@@H](Cc1ccc2ccccc2c1)C(=O)O; d2Nal = N[C@H](Cc1ccc2ccccc2c1)C(=O)O; Abu = CC[C@H](N)C(=O)O

Molecular target: T1, rat somatostatin receptor subtype 2 (SSTR2) (Rattus norvegicus, UniProt P30680)
T1 construct: expressed in transfected cells; host or cells: Saccharomyces cerevisiae LY364
T1 sequence (P30680 whole entry): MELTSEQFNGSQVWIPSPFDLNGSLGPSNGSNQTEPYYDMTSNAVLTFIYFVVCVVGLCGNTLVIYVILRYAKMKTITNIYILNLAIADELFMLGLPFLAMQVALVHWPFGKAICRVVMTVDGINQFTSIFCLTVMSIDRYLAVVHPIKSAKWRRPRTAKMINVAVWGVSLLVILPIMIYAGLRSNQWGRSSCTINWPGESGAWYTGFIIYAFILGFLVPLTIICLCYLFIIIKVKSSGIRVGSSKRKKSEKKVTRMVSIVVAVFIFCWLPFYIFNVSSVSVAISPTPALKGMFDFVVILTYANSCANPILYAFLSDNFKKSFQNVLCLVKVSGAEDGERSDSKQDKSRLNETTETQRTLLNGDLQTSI
Experiment: Yeast assay, somatostatin agonist activity (growth zone of modified yeast cells on histidine-free agar)
Assay type: cell-based
Conditions: rating on a scale of 1-5 from zone of growing cells; S. Cerevisiae LY364
Description: In this evaluation, yeast cells which have been specifically modified to functionally express rat somatostatin receptor subtype 2 (SSTR2) on their cell surfaces are used. S. Cerevisiae LY364 cells are plated in a standard synthetic agar medium which lacks histidine. In the absence of a somatostatin receptor agonist, the auxotrophic (his3) cells are unable to grow. In the presence of somatostatin, or a somatostatin agonist, the expression of an enzyme (His3p: imidazole-glycerol phosphate dehydratase) which is essential for histidine biosynthesis is induced. The cells become competent to produce histidine, resulting in a zone of growing cells around the applied test compound. The zone is measured and the test compound is given an agonist rating on a scale of 1-5 wherein 1 is minimum agonist activity and 5 is maximum agonist activity.
SCD-ura-trp: • 1) To 500 mL water add: • 1.7 g YNB without amino acids and (NH4)2SO4 • 5.0 g (NH4)2SO4 • 0.7 g CSM-ura-trp • 2) To additional 500 mL water add: 20 g Dextrose • 3) Autoclave separately. Mix.
SCL-ura-trp: • 1) To 500 mL water add: • 1.7 g YNB without amino acids and (NH4)2SO4 • 5.0 g (NH4)2SO4 • 0.7 g CSM-ura-trp • 2) To additional 500 mL water add: 30 mL Lactic Acid • 3) Autoclave separately. Mix.
SCG-ura-trp: • 1) To 500 mL water add: • 1.7 g YNB without amino acids and (NH4)2SO4 • 5.0 g (NH4)2SO4 • 0.7 g CSM-ura-trp • 2) To additional 500 mL water add: 30 g D-Galactose • 3) Autoclave separately. Mix.
SCG-ura-trp-his agar medium, pH 6.8: • 1) To 500 mL water add: • 1.7 g YNB without amino acids and (NH4)2SO4 • 5.0 g (NH4)2SO4 • 0.7 g CSM-ura-trp-his • Stirring Bar • 2) Adjust pH to 6.8-6.9 by dropwise addition of conc. NH4OH • 3) To additional 500 mL water add: 30 g D-Galactose, 20 g Agar • 4) Autoclave separately. • 5) Stir to mix thoroughly. • 6) Equilibrate temperature to 55°C. YNB without amino acids and (NH4)2SO4, CSM-ura-trp, and CSM-ura-trp-his are manufactured by Bio101. Ammonium sulfate ((NH4)2SO4), Dextrose (D-glucose), D-Galactose, and Lactic Acid are manufactured by Sigma.
• 1) Inoculate 2 mL SCD-ura-trp liquid medium in Falcon 2051 tube with a single colony taken from a plate containing LY364 (MATa ura3-52 leu2 his3 trp1 lys2 ade2 far1:: LYS2 fus1:: FUS1-HIS3 gpal::hisG sst2::ADE2 bearing the SSTR2 expression plasmid, pJH2, and the G protein expression plasmid, pLP82)cells. • 2) Incubate overnight in a roller drum at 30°C.
Day 2. • 1) Harvest the cells by centrifugation (3 krpm, 5 min, room temp). • 2) Re-suspend with 5 mL of sterile water. • 3) Harvest again by centrifugation. • 4) Re-suspend in 5 mL SCL-ura-trp liquid medium. • 5) Incubate for 6 hours in a roller drum at 30°C. • 6) Harvest the cells again by centrifugation. • 7) Re-suspend in 5 mL SCG-ura-trp liquid medium. • 8) Incubate overnight in a roller drum at 30°C.
Day 3. • 1) Autoclave SCG-ura-trp-his pH 6.8 agar medium. • 2) Cool to 55°C in water bath. • 3) Add 1 mL of LY364 culture to 1 liter of agar medium. • 4) Stir vigorously for 1 min. • 5) Pour 150 mL each into five 500 cm^2 plates. • 6) Allow to cool on level surface. • 7) Apply test compound.
On day 3, add 5µL 1 mg/mL S-14 to each plate. Day 5. Begin checking plates for growth around applied compounds. Day 7. Growth in response to somatostatin should be readily observable. Rate extent of growth or inhibition of growth according to rating scale described hereinabove.

| SMILES | Yeast Assay Agonist |
| --- | --- |
| CC(C)[C@@H]1NC(=O)[C@H](CCCCN)NC(=O)[C@@H](Cc2c[nH]c3ccccc23)NC(=O)[C@H](Cc2ccc(O)cc2)NC(=O)[C@H](NC(=O)[C@@H](N)Cc2ccc([N+](=O)[O-])cc2)CSSC[C@@H](C(=O)N[C@@H](Cc2ccc3ccccc3c2)C(N)=O)NC1=O (H-[Phe(4-NO2)][dC]Y[dW]KVC[2Nal]-NH2; disulfide 2-7 (inferred)) | - |
| CC[C@@H]1NC(=O)[C@H](CCCCN)NC(=O)[C@@H](Cc2c[nH]c3ccccc23)NC(=O)[C@H](Cc2ccc(O)cc2)NC(=O)[C@H](NC(=O)[C@@H](N)Cc2ccc([N+](=O)[O-])cc2)CSSC[C@@H](C(=O)N[C@@H](Cc2ccc(O)cc2)C(N)=O)NC1=O (H-[Phe(4-NO2)][dC]Y[dW]K[Abu]CY-NH2; disulfide 2-7 (inferred)) | - |
| CC(C)[C@@H]1NC(=O)[C@H](CCCCN)NC(=O)[C@@H](Cc2c[nH]c3ccccc23)NC(=O)[C@H](Cc2ccc(O)cc2)NC(=O)[C@H](NC(=O)[C@H](N)Cc2ccc3ccccc3c2)CSSC[C@@H](C(=O)N[C@@H](Cc2ccc(O)cc2)C(N)=O)NC1=O (H-[d2Nal][dC]Y[dW]KVCY-NH2; disulfide 2-7) | - |
| C[C@@H](O)[C@@H]1NC(=O)[C@H](CCCCN)NC(=O)[C@@H](Cc2c[nH]c3ccccc23)NC(=O)[C@H](Cc2ccc(O)cc2)NC(=O)[C@H](NC(=O)[C@@H](N)Cc2ccc([N+](=O)[O-])cc2)CSSC[C@@H](C(=O)N[C@@H](Cc2ccc(O)cc2)C(N)=O)NC1=O | - |
| C[C@@H](O)[C@@H]1NC(=O)[C@H](CCCCN)NC(=O)[C@@H](Cc2c[nH]c3ccccc23)NC(=O)[C@H](Cc2ccc(O)cc2)NC(=O)[C@H](NC(=O)[C@@H](N)Cc2ccc([N+](=O)[O-])cc2)CSSC[C@@H](C(=O)N[C@H](Cc2ccc(O)cc2)C(N)=O)NC1=O | - |
| CN[C@@H](Cc1ccc([N+](=O)[O-])cc1)C(=O)N[C@@H]1CSSC[C@@H](C(=O)N[C@@H](Cc2ccc(O)cc2)C(N)=O)NC(=O)[C@H](C(C)C)NC(=O)[C@H](CCCCN)NC(=O)[C@@H](Cc2c[nH]c3ccccc23)NC(=O)[C@H](Cc2ccc(O)cc2)NC1=O (H-[NMePhe(4-NO2)][dC]Y[dW]KVCY-NH2; disulfide 2-7 (inferred)) | - |
| CC(=O)N[C@@H](Cc1ccc2ccccc2c1)C(=O)N[C@@H]1CSSC[C@@H](C(=O)N[C@@H](Cc2ccc(O)cc2)C(N)=O)NC(=O)[C@H]([C@@H](C)O)NC(=O)[C@H](CCCCN)NC(=O)[C@@H](Cc2c[nH]c3ccccc23)NC(=O)[C@H](Cc2ccc(O)cc2)NC1=O (Ac-[2Nal][dC]Y[dW]KTCY-NH2; disulfide 2-7 (inferred)) | - |
| CC(=O)N[C@@H](Cc1ccc([N+](=O)[O-])cc1)C(=O)N[C@@H]1CSSC[C@@H](C(=O)N[C@H](Cc2ccc(O)cc2)C(N)=O)NC(=O)[C@H]([C@@H](C)O)NC(=O)[C@H](CCCCN)NC(=O)[C@@H](Cc2c[nH]c3ccccc23)NC(=O)[C@H](Cc2ccc(O)cc2)NC1=O | - |
| CC(C)[C@@H]1NC(=O)[C@H](CCCCN)NC(=O)[C@@H](Cc2c[nH]c3ccccc23)NC(=O)[C@H](Cc2ccc(O)cc2)NC(=O)[C@H](NC(=O)[C@@H](N)Cc2ccc3ccccc3c2)CSSC[C@@H](C(=O)N[C@@H](Cc2ccc(O)cc2)C(N)=O)NC1=O (H-[2Nal][dC]Y[dW]KVCY-NH2; disulfide 2-7; N-terminus assumed) | - |
| CC(C)[C@@H]1NC(=O)[C@H](CCCCN)NC(=O)[C@@H](Cc2c[nH]c3ccccc23)NC(=O)[C@H](Cc2ccc(O)cc2)NC(=O)[C@H](NC(=O)[C@@H](N)Cc2ccc([N+](=O)[O-])cc2)CSSC[C@@H](C(=O)N[C@@H](Cc2ccc(O)cc2)C(N)=O)NC1=O (H-[Phe(4-NO2)][dC]Y[dW]KVCY-NH2; disulfide 2-7 (inferred)) | - |
